The nature of this data set: Measurement of LogP values by HPLC on reversed phase columns (EEC directive 79/831 Annex V.A8). It is filed as physicochemical. Conditions: method [a]: LC-UV, acidic range, 0.1% formic acid in water and acetonitrile as eluent (linear gradient from 10% to 95% acetonitrile); for chromatographic logP: reversed phase HPLC column. The procedure:
Measurement of LogP values was performed according to EEC directive 79/831 Annex V.A8 by HPLC (High Performance Liquid Chromatography) on reversed phase columns with the following methods: • ^[a] LogP value is determined by measurement of LC-UV, in an acidic range, with 0.1% formic acid in water and acetonitrile as eluent (linear gradient from 10% acetonitrile to 95% acetonitrile). • ^[b] LogP value is determined by measurement of LC-UV, in a neutral range, with 0.001 molar ammonium acetate solution in water and acetonitrile as eluent (linear gradient from 10% acetonitrile to 95% acetonitrile). • ^[c] LogP value is determined by measurement of LC-UV, in an acidic range, with 0.1% phosphoric acid and acetonitrile as eluent (linear gradient from 10% acetonitrile to 95% acetonitrile). If more than one LogP value is available within the same method, all the values are given and separated by “+”. Calibration was done with straight-chain alkan2-ones (with 3 to 16 carbon atoms) with known LogP values (measurement of LogP values using retention times with linear interpolation between successive alkanones). Lambda-max-values were determined using UV-spectra from 200 nm to 400 nm and the peak values of the chromatographic signals.

This is an account of results in patent US20200045972A1, “NOVEL 5-SUBSTITUTED IMIDAZOLYLMETHYL DERIVATIVES” (Bayer CropScience Aktiengesellschaft, priority 2016, published 2020).

`N#Cc1cncn1CC(O)(CC1CC(c2ccccc2)=NO1)C1(Cl)CC1` (racemic) [Example I-05, 1-[2-(1-chlorocyclopropyl)-2-hydroxy-3-(3-phenyl-4,5-dihydro-1,2-oxazol-5-yl)propyl]-1H-imidazole-5-carbonitrile]: the chromatographic logP turned out to be 2.71. In the case of `N#Cc1cncn1CC(O)(CC1CC(c2ccccc2)=NO1)C1(Cl)CC1` (racemic) [Example I-06, 1-[2-(1-chlorocyclopropyl)-2-hydroxy-3-(3-phenyl-4,5-dihydro-1,2-oxazol-5-yl)propyl]-1H-imidazole-5-carbonitrile], the LogP was 2.59 ^[a].

On to `N#Cc1cncn1CC(O)(Cc1cc(-c2ccccc2)no1)C1(Cl)CC1` (stereo not drawn) [Example I-03, 1-[2-(1-chlorocyclopropyl)-2-hydroxy-3-(3-phenyl-1,2-oxazol-5-yl)propyl]-1H-imidazole-5-carbonitrile], for which the chromatographic logP came out at 2.54.
